Tests used:
Type in all cases: cell-based, human
HUVECs [1] = experiment: HUVEC viability in 3D PEG hydrogel array spots; details: 10 μM SU5416, 48 hours
Protocol: During hydrogel array fabrication, hydrogel spots contained HUVECs at a density of 2×10^7 cells/mL. The concentration of CRGDS adhesion peptide (SEQ ID NO:2) was adjusted to 0, 0.25, 0.5, 1.0 and 2.0 mM through the addition of PEGNB-CRGDS (SEQ ID NO:2), with the total pendant peptide concentration in all hydrogel spots maintained at 2 mM by adding PEGNB-CRDGS (SEQ ID NO:2). Total polymer percent weight was varied between 4.2, 5 and 7% w/v in the hydrogel spots and 4, 6 and 8% w/v in the backgrounds, with low percent weight hydrogel spots corresponding to low weight percent backgrounds and high percent weight hydrogel spots corresponding to high percent weight backgrounds. During viability experiments, arrays of encapsulated cells were cultured for 48 hours in growth medium alone or with 10 μM SU5416 (Sigma Aldrich), a known inhibitor of VEGFR2 signaling. Medium was replaced 24 hours after encapsulation. After 48 hours of culture, the arrays were washed with serum-free M199 and stained with 5 μM Cell Tracker Green (Invitrogen) for 45 minutes in M199. After 15 minutes of staining, the staining solution was supplemented with Hoechst nuclear stain (Invitrogen) to achieve a final concentration of 10 μg/mL. After staining, the arrays were washed with serum free M199 and incubated for 30 minutes in growth medium containing 2 μM ethidium homodimer (Invitrogen). The arrays were then washed with 1×PBS and fixed for 30 minutes in 10% buffered formalin (Fisher). The arrays were soaked in 1×PBS overnight and photographed using a Nikon TE300 fluorescence microscope within 48 hours of fixation. Viability was quantified by dividing the number of live cell nuclei by total nuclei in the post.

HUVECs [2] = experiment: HUVEC tubulogenesis in growth factor-reduced MATRIGEL spots; details: 10 μM SU5416, HUVECs in growth factor-reduced MATRIGEL, 48 hours
Protocol: HUVECs were suspended in growth factor-reduced MATRIGEL® (BD Biosciences, San Jose, Calif.) at a density of 2×10^7 cells/mL. A 200 μm thick PDMS sheet of microwells was placed on top of a glass slide and the MATRIGEL®-cell suspension was pipetted as 0.4 μl droplets into the microwells. These arrays of MATRIGEL® “spots” were incubated at 37° C. for 30 minutes and covered in growth medium alone or with 10 μM SU5416. After 48 hours of culture, the arrays were stained with Cell Tracker Green in the same manner as in the PEG hydrogel viability assay, but without Hoechst nuclear stain or ethidium homodimer. The arrays were washed with 1×PBS and fixed for 30 minutes in 10% buffered formalin. A green fluorescence and phase contrast z-stack image of each spot was taken at 48 hours after encapsulation using a Nikon TI Eclipse microscope. Total CLS length in each individual spot was quantified manually.

HUVECs [3] = experiment: HUVEC proliferation with VEGFR2 inhibition on tissue culture polystyrene (EdU); details: 10 μM SU5416, HUVECs on TCPS, 24 hours
Protocol: HUVECs were plated in tissue culture polystyrene (TCPS) 24-well plates at a density of 5.0×10^4 cells/cm^2. The cells were grown in growth medium alone or with 10 μM SU5416 for 24 hours. Afterward, the medium was changed to fresh growth medium with or without 10 μM SU5416 and 20 μM EdU. After 5 hours of incubation, the cells were fixed in 10% buffered formalin for 30 minutes and stained using the Click-iT EdU 488 proliferation kit (Invitrogen). The staining procedure was slightly modified from the manufacturer's instructions, as Alexa Fluor® 488 was diluted to half the recommended concentration. The cells were photographed using a Nikon TE300 fluorescence microscope and proliferation was quantified via by counting nuclei staining positive for EdU and normalizing the number to total nuclei.

HUVECs [4] = experiment: HUVEC tubulogenesis (total CLS length) in 3D PEG hydrogel array spots; details: 10 μM SU5416, 24 hours
Protocol: (§1) During proliferation and tubulogenesis experiments, the arrays of encapsulated cells were cultured in growth medium alone or with 10 μM SU5416 for 24 hours only. Afterward, the cells were incubated for 5 hours in growth medium with 20 μM 5-ethynyl-2′-deoxyuridine (EdU) (Invitrogen) as a proliferation marker and, if appropriate, 10 μM SU5416. Afterward, the arrays were stained with Cell Tracker Green in the same manner as the viability assay, but without Hoechst nuclear stain or ethidium homodimer. The arrays were washed with 1×PBS, fixed for 30 minutes in 10% buffered formalin and stained using the Click-iT EdU 594 proliferation kit (Invitrogen). The staining procedure was slightly modified from the manufacturer's instructions, as Alexa Fluor® 594 was diluted to half the recommended concentration. The arrays were soaked in 1×PBS overnight and photographed using a Nikon TE300 fluorescence microscope. Proliferation was quantified by counting the number of EdU-positive cells and dividing by the total number of nuclei in the post. Tubulogenesis was quantified by manually measuring total capillary-like structure (CLS) length in each post as labeled by Cell Tracker Green. To obtain confocal microscopy images, the hydrogel arrays were mounted in Prolong Gold antifade solution (Invitrogen) and photographed on a Nikon A1R-Si confocal microscope.
Hydrogel solutions were created by combining 36, 42 or 60 mg/mL 20 kDa 8-arm norbornene-functionalized PEG with 0 to 2 mM CRGDS (SEQ ID NO:2) adhesion peptide, additional CRDGS (SEQ ID NO:32) scrambled adhesion peptide to maintain a total adhesion peptide concentration of 2 mM, […] (SEQ ID NO:27) crosslinking peptide at a 2× molar excess concentration to PEG and 0.05% IRGACURE 2959 photoinitiator in phosphate buffered saline. The solutions were polymerized into hydrogels under UV light (90 mW/cm^2, 365 nm, 2 seconds). HUVECs were encapsulated at a density of 2.0×10^7 […] in hydrogels and incubated in M199 supplemented with EGM2 growth supplement. The cells were stained with Cell Tracker Green CMFDA, photographed 24 hours after seeding and scored for total tubule length in the spots. Results are shown FIGS. 18, 28 and 29.

HUVECs [5] = experiment: HUVEC proliferation in 3D PEG hydrogel array spots (Click-iT EdU); details: 10 μM SU5416, 24 hours
Protocol: as §1

Cc1cc(C)c(/C=C2\C(=O)Nc3ccccc32)[nH]1 [SU5416]
reduction of viability with VEGFR2 inhibition (HUVECs [1]; all modulus conditions, spots with 2 mM CRGDS): insignificant
effect of VEGFR2 inhibition on cell viability (HUVECs [1]; conditions without CRGDS): significantly reduced
effect of VEGFR2 inhibition on viability (HUVECs [1]; high modulus, CRGDS at or above 0.5 mM): not significant
decrease in total tubule length compared to growth medium only (HUVECs [2]): 50%
decrease in proliferation compared to the growth medium control (HUVECs [3]): 20%
effect of VEGFR2 inhibition on CLS length (HUVECs [4]; high modulus, 1 mM CRGDS spots): decreased CLS length
effect of VEGFR2 inhibition on CLS length (HUVECs [4]; low modulus, 2 mM CRGDS spots): increased CLS length
effect of VEGFR2 inhibition on CLS length (HUVECs [4]; medium modulus, 0 mM CRGDS spots): decreased CLS length
effect of VEGFR2 inhibition on CLS length compared to growth medium controls (HUVECs [4]; most hydrogel conditions): did not cause significant changes
effect of VEGFR2 inhibition on proliferation (HUVECs [5]; high modulus, 0 mM CRGDS): significant increase in proliferation
effect of VEGFR2 inhibition on proliferation (HUVECs [5]; high modulus, all CRGDS concentrations except 0 mM): significant decreases in proliferation
effect of VEGFR2 inhibition on proliferation (HUVECs [5]; low modulus, 0, 0.25 and 1 mM CRGDS): significant decrease
effect of VEGFR2 inhibition on proliferation (HUVECs [5]; low modulus, 2 mM CRGDS): increased significantly
effect of VEGFR2 inhibition on HUVEC proliferation (HUVECs [5]; majority of hydrogel conditions): decreased
effect of VEGFR2 inhibition on proliferation (HUVECs [5]; medium modulus, 0.5 and 2 mM CRGDS): significant proliferation decreases

— patent publication US9688957B2, “Hydrogel compositions for use in promoting tubulogenesis” (Wisconsin Alumni Research Foundation, priority 2014, dated 2017)
